Experimental data: patent US20210147842A1, “METHODS AND COMPOSITIONS FOR INHIBITING NECROPTOSIS IN NEUROVASCULAR AND/OR NEURODEGENERATIVE DISEASES OR DISORDERS” (President and Fellows of Harvard College, priority 2019, published 2021)
Peptide text beside a SMILES is read from it. * marks the point of attachment. Cbz = O=C(OCc1ccccc1)*

Legend:
Assay type in all cases: cell-based, mouse
bEnd.3 cells = experiment: TNFα-induced cell death in bEnd.3 cells (SYTOX green); settings: Nat1-KD bEnd.3 cells, TNFα 100 ng/ml; Nec1s 10 uM, 24 h; sodium acetate in culture medium
Description: Nat1-KD in bEnd.3 cells were conducted by lentivirus transfection with Nat1 shRNA. Ctrl group was transfected with lentivirus expressing scrambled shRNA. The efficiency of Nat-1 KD was confirmed by western blotting (WB). […] Cell death was quantified with SYTOX green staining. […] Ripk1 activation was examined by the blotting of p-S166 Ripk1 for cell lysates.
Mitochondria was stained with MitoTracker and imaged in live cells. […] For lysine acetylation, we first of all adjusted the protein concentrations to equalize A20 input in cell lysates of ctrl and Nat1-KD groups. Anti-acetylated lysine antibody was used for IP and anti-A20 antibody was used for WB.

A20 = A20 protein level and degradation in bEnd.3 cells (western blot, cycloheximide chase); settings: for A20 protein levels in Nat1-KD cells: Nat1-KD bEnd.3 cells, chloroquine 10 uM, E64d 5 ug/ml, sodium acetate over 24 h
Description: (§1) Nat1-KD in bEnd.3 cells were conducted by lentivirus transfection with Nat1 shRNA. Ctrl group was transfected with lentivirus expressing scrambled shRNA. The efficiency of Nat-1 KD was confirmed by western blotting (WB). TNFα(100 ng/ml) was applied in Ctrl or Nat-KD cells for 24 h with or without Ripk1 inhibitor, Nec1s (10 uM). Cell death was quantified with SYTOX green staining. […] Using Tandem Mass Tag (TMT) isobaric labeling mass spectrometry (MS), we identified 7707 proteins in Nat1-KD and Ctrl bEND.3 cells. […] Nat1-KD or Ctrl bEnd.3 cells were treated with Flag-TNFα (50 ng/ml) as the indicated time course. Ripk1 activation was examined by the blotting of p-S166 Ripk1 for cell lysates.
Panels b and c show bEnd.3 cells treated with cycloheximide (CHX, 250 ug/ml) to investigate the degradation kinetics of A20. […] Panels e and f show Chloroquine (CQ, 10 uM) and E64d (5 ug/ml) applied for inhibiting lysosomal protein degradation.
(§2) Since A20 is an important suppressor of RIPK1 activation, RIPK1 activation and Complex I assembly were next assessed in Nat1-KD or Ctrl bEnd.3 cells treated with TNFα.
To understand the mechanism by which A20 is decreased in Nat1-KD cells, it was first assessed whether this alteration was occurring at the protein or mRNA level. […] Nat1-KD and Ctrl bEnd.3 cells were treated with cycloheximide to investigate the kinetics of A20 degradation.

[1] = system: acetyl coenzyme A (acetyl-CoA); experiment: Acetyl-CoA concentration in bEnd.3 cells; settings: Nat1-KD bEnd.3 cells, sodium acetate over 24 h
Description: FIG. 9A-H: Decreased acetylation of A20 promotes the susceptibility of Nat-1 KD cells to TNFα induced cell death. […] Mitochondria was stained with MitoTracker and imaged in live cells. The scale bar represents 20 and 5 um, respectively. […] For N-terminal acetylation, subtiligase reaction as described in Yi et al. Cell 146, 607-620 (2011) was used. Biotin was added into the free N-terminal residue. […] For lysine acetylation, we first of all adjusted the protein concentrations to equalize A20 input in cell lysates of ctrl and Nat1-KD groups. Anti-acetylated lysine antibody was used for IP and anti-A20 antibody was used for WB. […] Nat1-KD bEnd.3 cells were treated with flag-TNFα (100 ng/ml) as the indicated time course. […]
Analysis of Nat1 knockout mice previously reported increased mitochondrial damage and fragmentation (Camporez, J. P. et al. Proceedings of the National Academy of Sciences of the United States of America 114, E11285-E11292 (2017)). […] Since Nat1 deficiency affects metabolism which may affect the cellular levels of acetyl-CoA, the concentration of total acetyl-CoA in Nat1-KD cells was determined. […] Further, supplementation with sodium acetate is also able to rescue the hyperactivation of RIPK1 in Nat1-KD cells in response to TNFα, as measured by RIPK1 ubiquitination (FIG. 9G). […]

RIPK1 = RIPK1 activation (p-S166, ubiquitination in complex I) in TNFα-treated bEnd.3 cells; settings: Nat1-KD bEnd.3 cells, sodium acetate 100 mM, flag-TNFα 100 ng/ml
Description: as §1
Mitochondria was stained with MitoTracker and imaged in live cells. […] For N-terminal acetylation, subtiligase reaction as described in Yi et al. Cell 146, 607-620 (2011) was used. Biotin was added into the free N-terminal residue. […] For lysine acetylation, we first of all adjusted the protein concentrations to equalize A20 input in cell lysates of ctrl and Nat1-KD groups. Anti-acetylated lysine antibody was used for IP and anti-A20 antibody was used for WB. […]
as §2

Nat1 mRNA = Nat1 mRNA expression in bEnd.3 cells; settings: for insulin-induced Nat1 mRNA up-regulation: applied half an hour prior to insulin, MK-2206 5 uM, rapamycin 250 nM, oligomeric Aβ1-42 100 nM
Source text: FIG. 7: N-acetyltransferase 1 (Nat1) expression decreases in the brain ECs of AD. […] Fluorescence activated cell sorting (FACS) was used to isolate ECs (CD31^high and CD45^low) from single cell suspensions of brain tissues. The differentially expressed genes between APP/PS1 and WT groups were compared using edgeR and 116 genes were identified. […] Panels c and d show the expression of Nat1 protein (mouse)/Nat2 protein (human) in brain microvessels decreases during AD pathogenesis. Microvessels from mouse or human brains were isolated as described in Munikoti, et al. Journal of neuroscience methods 207, 80-85 (2012) and Boulay et al. Journal of visualized experiments: JoVE, e53208 (2015). […] Different concentrations of insulin were applied into the culture medium for 18 h. […] MK-2206(5 uM, Akt inhibitor), Repamycin (250 nM, mTOR inhibitor) or oligomeric Aβ1-42 (100 nM) was applied to the culture medium of bEnd.3 cells half an hour prior to the treatment of insulin.
To understand the mechanisms that mediate cerebral EC death and dysfunction in the pathogenesis of AD, fluorescence-activated cell sorting (FACS) was used to isolate ECs from the cerebrum of wild-type (WT) and APPswePSEN1dE9 (APP/PS1) mice (5-6 months of age). RNA sequencing (RNAseq) was used to profile gene expression between these groups, and differential gene expression was analyzed using edgeR (as described in Robinson, M. D., et al. Bioinformatics 26, 139-140 (2010)) (FIG. 7A). […] The decrease in Nat1 mRNA expression in cerebral ECs during AD pathogenesis was further confirmed by quantitative PCR (qPCR) (FIG. 7B). […] To validate the relevance of this finding in human AD pathogenesis, protein levels of NAT2 (the human homolog of mouse NAT1) in microvessels isolated from the brains of AD patients were assessed and compared to age-matched controls. […] To determine whether Nat1 expression might also be insulin-sensitive in immortalized mouse cerebral ECs (bEnd.3 cells), it was assessed whether increased concentrations of insulin could upregulate Nat1 (FIG. 7E).

## CC(=O)[O-].[Na+] [sodium acetate]
bEnd.3 cells
  TNFα-induced cell death in Nat1-KD cells: rescues
A20
  A20 protein levels in Nat1-KD cells: rescue
[1]
  acetyl-CoA in Nat1-KD cells: rescue
RIPK1
  hyperactivation of RIPK1 in response to TNFα, as measured by RIPK1 ubiquitination: rescue

## CN1C(=O)NC(Cc2c[nH]c3c(Cl)cccc23)C1=O (centres unmarked) [Nec-1s]
bEnd.3 cells
  TNFα-induced cell death in Nat1-KD cells: rescued

## oligomeric Aβ1-42: oligomeric amyloid beta 1-42
Nat1 mRNA
  insulin-induced Nat1 mRNA up-regulation: blocked

## NC1(c2ccc(-c3nc4ccn5c(=O)[nH]nc5c4cc3-c3ccccc3)cc2)CCC1 [MK-2206]
Nat1 mRNA
  insulin-induced Nat1 mRNA up-regulation: negated

## CCN(CC)CCCC(C)Nc1ccnc2cc(Cl)ccc12 (centres unmarked) [chloroquine]
A20
  A20 protein levels in Nat1-KD cells: rescued

## CC(C)C[C@@H](C=O)NC(=O)[C@H](CC(C)C)NC(=O)[C@H](CC(C)C)NC(=O)OCc1ccccc1 [MG132] (Cbz-Leu-Leu-Leu-aldehyde)
A20; both Ctrl and Nat1-KD bEnd.3 cells, MG132 10 uM
  protein expression of A20: reduced

## insulin: exogenous insulin applied into the culture medium
Nat1 mRNA; different concentrations in culture medium, 18 h
  Nat1 mRNA expression: increases

## CCOC(=O)[C@H]1O[C@@H]1C(=O)N[C@@H](CC(C)C)C(=O)NCCC(C)C [E64D]
A20
  A20 protein levels in Nat1-KD cells: rescued
